Data: publication PMC7217877, “N-AS-triggered SPMs are direct regulators of microglia in a model of Alzheimer’s disease” (Nature Communications, 2020)
“And” between values parts separate entries of the source, which are not always exact repeats. Equal values may be shown once.

How the values were obtained:
APP/PS1 mice [1] = test: flow cytometry of brain immune cells (Fig 5c-g); assay type: in vivo, mouse; conditions: APP/PS1 + N-AS, individual values
Procedure: Transgenic mouse lines over-expressing the hAPP695swe (APP) and presenilin-1M146V (PS1) mutations were originated from GlaxoSmithKline (Harlow, UK)[32] and maintained as described previously. We purchased 5×FAD mice from Jackson Labs (Stock number. 34840-JAX). Because APP/PS1 and 5xFAD mice show sex differences in disease progression, we used only male mice. To examine possible therapeutic effect of N-AS and aspirin in APP/PS1 mice, the N-AS (30 mg kg^−1, Sigma-Aldrich, 01912) was injected daily s.c. for 8 weeks to 7-months-old APP/PS1 mice until the age of 9 months, and aspirin (2 mg kg^−1, Sigma-Aldrich, A5376)[33] was administrated orally to 7-months-old APP/PS1 mice for 8 weeks. Also, to confirm possible therapeutic efficacy of N-AS in 5×FAD, the N-AS (30 mg kg^−1, Sigma-Aldrich, 01912) was injected daily s.c. for 4 weeks to 3-months-old 5×FAD mice until the age of 4 months. Block randomization method was used to allocate the animals to experimental groups. To eliminate the bias, we were blinded in experimental progress such as data collection and data analysis. Mice were housed at temperature of 22 °C and a 12 h day/12 h night cycle with free access to tap water and food pellets. All protocols were approved by the Kyungpook National University Institutional Animal Care and Use Committee.
Brain microglia polarity and immune cells in brain and blood were analyzed by flow cytometry. Cells from WT, APP/PS1, and APP/PS1 treated with N-AS mice brain were prepared as previously described with minor modifications. Brains of WT, APP/PS1, and APP/PS1 treated with N-AS mice were dissected and immediately transferred in ice-cold HBSS (Gibco). After gentle mincing, the brain was digested in a HBSS solution containing collagenase P (0.2 mg ml^−1, Roche), dispase II (0.8 mg ml^−1, Roche), DNase I (0.01 mg ml^−1, Roche), and collagenase A (0.3 mg ml^−1, Roche) at 37 °C for 1 h under gentle rocking. Digestion was stopped by adding FBS (Gibco) on ice. The supernatants were centrifuged at 250×g for 10 min at 4 °C. The pellet was resuspended in 25% BSA (Gibco)/PBS (Gibco) for myelin removal. Following a centrifugation step at 3000×g for 30 min at 4 °C, the myelin containing supernatant was discarded. The cell pellets were then resuspended in 1 ml of HBSS and filtered through a 40 μm mesh, followed by a washing step in HBSS. The cell pellets were resuspended in 1 ml of red blood cell lysis buffer (BD Biosciences) and incubated at RT for 10 min for lysis of erythrocytes. Subsequently, 2 ml of MACs buffer (Miltenyl Biotec, 130-091-222) was added and centrifuged at 250×g for 10 min at 4 °C. Cells from WT, APP/PS1, and APP/PS1 treated with N-AS mice blood were prepared as previously described with minor modifications. Blood was collected in sodium-heparin tube (BD, 367871) by cardiac puncture. Red blood cells were lysed once at 4 °C for 10 min in 0.15 M NH4Cl ([…] Technologies), washed once with PBS (Gibco), and counted using cell counter (Logos biosystems). […]

APP/PS1 mice [2] = test: Iba1+ microglia and GFAP+ astrocyte quantification in cortex (Fig 6h,i); assay type: in vivo, mouse
Procedure: Thioflavin S (Sigma-Aldrich) staining was carried out according to previously described procedures. We used 6E10 (mouse, 1:100, Signet, SIG39300), anti-20G10 (mouse, 1:1000, provided by D. R. Howlett, GlaxoSmithKline, Harlow, Essex, UK) for Aβ42, anti-G30 (rabbit, 1:1000, provided by D. R. Howlett) for Aβ40, SMA (mouse, 1:400, Sigma-Aldrich, A2547), AT8 (mouse, 1:500, Thermo Fisher Scientific, MN1020), Caspase-3 (mouse, 1:200, Novus Biologicals, NB100-56708), ac-S565 (rabbit, 1:100), COX2 (mouse, 1:250, Thermo Fisher Scientific, 35-8200), Iba1 (rabbit, 1:500, Wako, 019-19941 and goat, Abcam, ab5076), NeuN (mouse, 1:500, Millipore, MAB177), GFAP (rabbit, 1:500, Dako, N1506 and chicken, 1:500, Abcam, ab4674), and Lamp1 (mouse, 1:200, Abcam, ab24170). The sections were analyzed with a laser-scanning confocal microscope (FV3000; Olympus) or with a BX51 microscope (Olympus). MetaMorph software (Molecular Devices) was used to quantification. Three-dimensional reconstruction of microglia was recorded and analyzed using IMARIS software (Bitplane)[11]. For the analysis of age-dependent microglial COX2^+ CX3CR1^+ cells in WT and APP/PS1 mice, COX2 (rabbit, 1:100, Abcam, ab15191) and CX3CR1 (mouse, 1:100, BioLegend, 149008) antibody were used and the images were acquired on Alexa 488 and APC Channel with performed using Operetta CLS and Analysis Software 4.5 (Perkin-Elmer).
Transgenic mouse lines over-expressing the hAPP695swe (APP) and presenilin-1M146V (PS1) mutations were originated from GlaxoSmithKline (Harlow, UK)[32] and maintained as described previously. We purchased 5×FAD mice from Jackson Labs (Stock number. 34840-JAX). Because APP/PS1 and 5xFAD mice show sex differences in disease progression, we used only male mice. To examine possible therapeutic effect of N-AS and aspirin in APP/PS1 mice, the N-AS (30 mg kg^−1, Sigma-Aldrich, 01912) was injected daily s.c. for 8 weeks to 7-months-old APP/PS1 mice until the age of 9 months, and aspirin (2 mg kg^−1, Sigma-Aldrich, A5376)[33] was administrated orally to 7-months-old APP/PS1 mice for 8 weeks. […]

[3] = APP/PS1 + N-AS, individual animals

CCCCCCCCCCCCC/C=C/[C@@H](O)[C@H](CO)NC(C)=O [N-AS, N-((2S,3R,E)-1,3-Dihydroxyoctadec-4-en-2-yl)acetamide]
calculated percentage of B220+ B cell (APP/PS1 mice [1]): 2.8 and 2.66 and 2.73 and 2.695
calculated percentage of CD4+ T cell (APP/PS1 mice [1]): 2.24 and 2.43 and 2.335 and 2.3825
calculated percentage of CD45+CD11b+Ly6ChiLy6G- monocyte (APP/PS1 mice [1]): 0.84 and 1.06 and 0.92 and 0.95 and 0.99 and 0.935
calculated percentage of CD45hi CD11b+ Gr-1- F4/80+ CD206+ (anti-inflammatory macrophage) (APP/PS1 mice [1]): 0.4 and 0.45 and 0.37 and 0.39 and 0.41 and 0.38
calculated percentage of CD45hi CD11b+ Gr-1- F4/80+ MHCIIhi (pro-inflammatory macrophage) (APP/PS1 mice [1]): 0.46 and 0.45 and 0.59 and 0.4 and 0.52 and 0.495
calculated percentage of cd45+cd11b+gr1+ neutrophil (APP/PS1 mice [1]): 0.452 and 0.46 and 0.34 and 0.504 and 0.4 and 0.422
calculated percentage of cd45+ly6g+gr1+ neutrophil (APP/PS1 mice [1]): 0.99 and 1.19 and 0.83 and 0.97 and 1.01 and 0.9
GFAP+ astrocyte quantification (Figure 6i) (APP/PS1 mice [2]; [3]): 2.9 and 1.684 and 2.972 and 1.386 and 1.661 and 0.8495 and 1.293 and 1.379
Iba1+ microglia quantification (Figure 6h) (APP/PS1 mice [2]; [3]): 0.2355 and 0.191 and 0.3245 and 0.8739 and 0.8648 and 0.875 and 0.5574 and 0.579 and 0.4301
inflammatory response (Iba1+ microglia, GFAP+ astrocyte) (APP/PS1 mice [2]; N-AS vs vehicle APP/PS1): improved
